“Also recorded” adds a separate entry of the source.
Key:
[1] = system: auxin promoter::Venus; test: Repression activity of H1 helices fused to IAA3 in the AtARCSc, fluorescence flow cytometry; assay type: cell-based, Saccharomyces cerevisiae; details: for Repression activity of H1-HA-IAA3 library constructs: H1-HA-IAA3 expressed off a plasmid, static ARC components integrated at URA3
[2] = assay type: cell-based, Saccharomyces cerevisiae
Protocol: Western Blot. […] Cells were harvested by centrifugation. Cells were lysed by vortexing for 5 min in the presence of 200 μl of 0.5-mm diameter acid washed glass beads and 200 μl SUMEB buffer (1% SDS, 8 M urea, 10 mM MOPS pH 6.8, 10 mM EDTA, 0.01% bromophenol blue, 1 mM PMSF) per one OD unit of original culture. Lysates were then incubated at 65° C. for 10 min and cleared by centrifugation prior to electrophoresis and blotting. Antibodies: anti-HA-HRP (REF-12013819001, Clone 3F10, Roche/Millipore Sigma, St. Louis, MO), anti-PGK1 (ab113687, AbCam). Protein concentrations were quantified using ImageJ, with PGK1 protein measured in each strain to normalize protein concentrations across strains. To compare protein concentrations to […]1, these were then normalized to TPL concentration using this equation: ([[…]1 normalized protein concentrations were plotted on a Log 2 scale.

[3] = system: synthetic auxin reporter DR5-Venus; test: H1 repression assay, transient transformation in tobacco leaves; assay type: in vivo, Nicotiana benthamiana; details: transient expression in tobacco, IAA3 EAR motif mutated to AxAxA
Protocol: Reporter activation was measured in four separate leaf injections (biological replicates) in two days of injection (boxplots illustrated in FIG. 5C are pooled data from one day, with two replicates divided on right and left panels). Each leaf was excised at 8 locations and measured for Venus fluorescence using a plate scanner. pDR5:Venus: the synthetic DR5 auxin promoter (Ulmasov et al., Plant Cell 9, 1963-1971, 1997) driving Venus; ARF19: […]; […] Plant growth. […] Strain density was normalized to an OD600 of 1 for each strain in the final mixture of strains before injection into tobacco leaves. Leaves were removed, and eight different regions were excised using a hole punch, placed into a 96-well microtiter plate with 100 μl of water. Each leaf punch was scanned in a 4×4 grid for yellow and red fluorescence using a plate scanner (Tecan Spark, Tecan Trading AG, Switzerland). Fluorescence data was quantified and plotted in R (ggplots2).

[4] = biological target: T1, H1 sequence of TBL1 (Homo sapiens, UniProt O60907); test: Small molecule testing on the yeast H1 platform, TBL1 helix fused to IAA3; assay type: cell-based; details: yeast cultured 4 hours with compound, flow cytometry, absence of Beta-catenin
T1 construct: expressed in transfected cells; host or cells: Saccharomyces cerevisiae reporter strain (AFB2, ARF19 and auxin promoter::Venus integrated at URA3)
Protocol: (§1) Yeast were grown overnight from a dilution of […] at 30° C. and 250 rpm. When cell density reached […] either control (DMSO) or small molecule BC2059 were added at the indicated concentration, and cultured for 4 hours before being measured for fluorescence by flow cytometry. Each data point represents three independent time-course flow cytometry experiments of the helices indicated, all fused to IAA3. Every point represents the average fluorescence of at least 10,000 individually measured yeast cells (a.u.: arbitrary units). Error bars are standard error.

[5] = biological target: T2, TPL sequence (Arabidopsis thaliana, UniProt Q94AI7); test: Small molecule testing on the yeast H1 platform, TPL helix fused to IAA3; assay type: cell-based; details: yeast cultured 4 hours with compound, flow cytometry
T2 construct: a construct carrying only the first 18 amino acids of Helix 1 of the LisH domain fused to IAA3; expressed in transfected cells; host or cells: Saccharomyces cerevisiae reporter strain (AFB2, ARF19 and auxin promoter::Venus integrated at URA3)
Protocol: as §1

[6] = system: mutant TBL1 H1 sequence; test: Cancer variant detection using the yeast H1 platform; assay type: cell-based, Homo sapiens (Human); details: 500 nM, 4 hours, compared with wild type TBL1 H1
Protocol: as §1, with “of the TBL1 or control helices indicated,” for “of the helices indicated,”
Yeast carrying either the wild type or mutant TBL1 H1 sequence were cultured in the presence or absence of 500 nM Tegatrabetan and fluorescence measured by flow cytometry. […] This approach is particularly relevant to personalized medicine for a given mutation in a patient.

| Compound | Repression activity of H1-HA-IAA3 library constructs [1] | Protein accumulation / stability [2] | also measured |
| --- | --- | --- | --- |
| HsLIS1: H1 sequence DELNRAIADYLRS, SEQ ID NO: 63 (listed as Homo sapiens) | repressive | well expressed | – |
| 1853M: cancer variant H1 KELLLLMRNHLIS, SEQ ID NO: 85 | slightly decrease | slightly increasing protein accumulation | – |
| H856Y: cancer variant H1 KELLLLIRNYLIS, SEQ ID NO: 87 | not significantly affected | not significantly affected | – |
| L851F: cancer variant H1 KELLFLIRNHLIS, SEQ ID NO: 84 | dramatically reduces | dramatically reduces | – |
| PfGID8: H1 tested in tobacco; perhaps H1-BCR36DRAFT, KDLNKLIMNYLVI, SEQ ID NO: 36 (listed as Chytriomyces confervae) | – | – | Repression of reporter in planta [3]: less |
| C[C@@H]1C[C@H](C)CN(S(=O)(=O)c2ccc3c(c2)C(=NO)c2cc(S(=O)(=O)N4C[C@H](C)C[C@H](C)C4)ccc2C3=NO)C1 [BC2059, Tegavivint] | – | – | Effect on TBL1's repressive activity on transcription [4]: dose-dependent interference; Effect on TPL H1 repression [5]: unaffected; Responsiveness of TBL1 H1 cancer variant mutations to the compound [6]: Certain cancer mutants were less sensitive to treatment |
| SpHIF2: H1 sequence NQVNYIIWRYLKE, SEQ ID NO: 17 (Schizosaccharomyces pombe) | not detected | very poor protein stability | – |
| R14W: cancer variant H1 DEVNFLVYWYLQE, SEQ ID NO: 83 | higher repression rates | reductions in protein abundance | – |
| R6E: TPL H1 mutant EELVFLILQFLDE, SEQ ID NO: 91 | loss of repression | negative effect on protein accumulation | – |
| R854Q: cancer variant H1 KELLLLIQNHLIS, SEQ ID NO: 86 | increase | slightly increasing protein accumulation | – |
| DmGID8: H1 tested in tobacco; probably H1-DmDMEI, ADLNRLVMNYLVT, SEQ ID NO: 38 (listed as Drosophila sechellia) | – | – | Repression of reporter in planta [3]: not functional |
| HsTBL1X Y64C: cancer variant H1 DEVNFLVCRYLQE, SEQ ID NO: 81 | strongest repressor | highest accumulation | – |
| R65Q: cancer variant H1 DEVNFLVYQYLQE, SEQ ID NO: 82 | higher repression rates | reductions in protein abundance | – |
| R6V: TPL H1 mutant VELVFLILQFLDE, SEQ ID NO: 106 | loss of repression | negative effect on protein accumulation | – |
| F10A: TPL H1 mutant RELVALILQFLDE, SEQ ID NO: 121 | – | – | Time course flow cytometry following auxin addition (de-repression) ([1]; AtARCSc in yeast, auxin (IAA-10 μM) added): strengthened the durability of repression H1, converting it into an auxin-insensitive repression domain; also recorded: loss of auxin sensitivity; Repression of reporter in planta [3]: improvements in repression in tobacco compared to wild type |
| R6N: TPL H1 mutant NELVFLILQFLDE, SEQ ID NO: 94 | loss of repression | negative effect on protein accumulation | – |
